From patent US20250034208A1, “PEPTIDES AND PHARMACEUTICAL AND COSMETIC COMPOSITIONS CONTAINING THEM” (LABORATOIRES D'ANJOU, priority 2021, published 2025)
Bridges are numbered along the chain shown (N, C = ends). Where no end group is shown, it is not given here.

Experiments:
[1] = system: freshly isolated human primary keratinocytes; assay: Wound closure test of a sheet of primary keratinocytes; type: cell-based; details: for wound closure activity, ranking of peptides: increasing order LRIRFTYK, CSGLRIRFTYKSGC, CLRIRFTYKC, Example 11, FIG. 10
Text: (§1) • the HT1080 line: Cells originating from epithelial lines, tools commonly used for cell adhesion studies, were first used. The cells of the HT1080 line (fibrosarcoma, Human), American Type Culture Collection CCL-121. • primary human keratinocytes: For the cell viability and migration test, freshly isolated normal human keratinocytes were used. Human keratinocytes were obtained from preputial biopsy (surgical waste, tissue bank and cells, Edouard Herriot Hospital). The culture medium used during the experiments was the medium defined for KGM-Gold keratinocytes sold by Lonza Bioscience containing 0.15 mM of CaCl2, pH 7.2 to 7.4. The keratinocytes were obtained according to the Boyce and Ham technique (Cultivation, frozen storage, and clonal growth of normal human epidermal keratinocytes in serum free-media, Tiss Cuit. Meth. 1985, 9:83-93). The pieces of skin, after rinsing in PBS buffer containing antibiotics, were freed of the fat tissue and cut into 3 mm^2 pieces, then placed in a sterile solution of 0.25% trypsin in PBS for 16 h at 4° C. The dermis/epidermis separation was carried out in a Petri dish containing culture medium in order to stop the action of trypsin. The epidermis fragments were sucked in and discharged several times to detach the free basal cells. After centrifuging, 3.10^4 live cells were seeded per cm2 on dishes for tissue cultivation (Corning, Polylabo, France). The keratinocytes were cultured at 37° C. in a CO2 incubator (5% CO2, 95% air and 98% moisture). The sub-culture took place when the cells reached the sub-confluence. The sheet of cells was then rinsed with PBS, then covered with a solution of Trypsin-EDTA (0.05-0.02%). After a short incubation at 37° C., the cells were detached, counted, and re-seeded.
6-well plates (Costar) are covered with collagen I for 16 h then rinsed with PBS. Three inserts with two Ibidi-sterile wells (Ibidi, reference: 80209) are deposited in each of the wells. 2×10^4 keratinocytes are deposited in each insert well in KBM-Gold. After two hours of incubation in humid air at 37° C., composed of 5% CO2 and 95% atmospheric air, the culture medium is sucked out and the inserts removed. KBM-Gold with no supplement is added to each of the wells of the plate. The cells are thus: not treated (medium alone), treated with supplement-free KBM-Gold containing the peptides studied (25 μg/ml), or treated with supplement-free KBM-Gold containing EGF at 10 ng/ml (Peprotech). The cultures are stopped at 12 h and 24 h, the media are sucked out, and the cells are fixed with 2% PBS-Paraformaldehyde for 20 minutes. After the fixator has been sucked out, the cells are colored with a 0.1% solution of Crystal Violet in ultrapure water for 30 minutes. The Crystal Violet is removed and the wells are rinsed with water. Image acquisitions are carried out and the injuries are quantified using Adobe Photoshop CS3 software.

HT1080 cells = assay: Cell adhesion test (colorimetric, crystal violet) on immobilized peptide; type: cell-based, Human; details: for adhesion response dependent on the amount of peptide immobilized in the wells: K substitution variants of LRIRATYG, Example 6, FIG. 5
Text: as §1, with “After centrifuging, 3.10^4 live cells were seeded per cm2 on dishes for tissue cultivation (Corning, Polylabo, France). The keratinocytes were cultured at 37° C. in a CO2 incubator (5% CO2, 95% air and 98% moisture). The sub-culture took place when the cells reached the sub-confluence. The sheet of cells was then rinsed with PBS, then covered with a solution of Trypsin-EDTA (0.05-0.02%).” left out, “re-seeded. […]” for “re-seeded.”
After seeding the cells, the plates were placed in an incubator at 37° C. in a 5% CO2 atmosphere. […] The absorbance was read at 570 nm using a plate reader (Victor^2 V Spectrophotometer, Perkin Elmer). […] The negative control value is the average of the absorbance of the three control wells (BSA). This was subtracted from each of the absorbance values obtained for the experimental points. The averages of the absorbance values for each of the conditions were calculated and were presented in the form of a curve, with on the y-axis, the average values of the absorbance, and on the x-axis, the various quantities of substrate immobilized in the wells (in μg or mole). […]

[2] = system: keratinocytes of the epidermis and other epithelial cells; details: prior patent EP1784423 of the Applicant; cited from earlier work
[3] = 25 μg/ml peptide, 12 and 24 h, Example 5, FIG. 4

Sequence: CLRIRFTYKC (disulfide 1-10 (inferred); not fully specified)
- wound closure activity, ranking of peptides [1]: most significant activities

Sequence: CSGLRIRATYGSGC (Other sequences)
- adhesion induction activity relative to the LRIRATYG motif (HT1080 cells; low concentration of immobilized peptide, Examples 2 and 3, FIG. 1 and 2): activity being doubled at a low concentration
- wound closure activity compared to TALRIRATYGEY and LRIRATYG [1, 3]: significantly greater activity at 12 and 24 h
- wound closure activity compared with the other peptides ([1]; 25 μg/ml peptide, 12 h and 24 h, Example 4, FIG. 3): significantly greater than that of the other peptides
- wound closure compared with negative control ([1]; 25 μg/ml peptide, 12 h and/or 24 h post-injury, negative control culture medium alone, Example 4, FIG. 3): very significantly greater than that of the negative control
- wound closure activity compared with negative control ([1]; 25 μg/ml peptide, time not given, Example 5, FIG. 4): significantly greater than that of the negative control

Sequence: CSGLRIRFTYKSGC (disulfide 1-14 (inferred); not fully specified)
- wound closure activity, ranking of peptides [1]: most significant activities

Sequence: LRIRATYK (Other sequences)
- adhesion response dependent on the amount of peptide immobilized in the wells (HT1080 cells): decreases

Sequence: LRIRKTYG (Other sequences)
- adhesion response dependent on the amount of peptide immobilized in the wells (HT1080 cells): disappears

Sequence: TALRIRATYGEY (Other sequences) [reference compound]
- wound closure activity, LRIRATYG and TALRIRATYGEY compared between them [1, 3]: equivalent activity between them
- wound closure activity compared with negative control ([1]; 25 μg/ml peptide, 24 h, negative control culture medium alone, Example 5, FIG. 4): significantly greater than that of the negative control
- induction of cell adhesion [2]: specifically induces the adhesion
